This is an account of results in US11110186B2, “Anionic chelate compounds” (GENERAL ELECTRIC COMPANY, priority 2017, dated 2021).

The conditions of data set [1]: estimated in DMSO; arm —C(═O)—N—R2R3 of Formula I; cited from earlier work.
Data set [2] in a line: Measurement of r1 and r2 relaxivities (Bruker mq60 relaxometer). Type of data set: physicochemical. To be noted: in water at 60 MHz and 40° C. How it is done: Manganese containing chelates were dissolved in water at concentrations ranging from […] Mn. T1 and T2 relaxation times were then measured at 60 MHz and 40° C. using a Bruker mq60 relaxometer. Linear fits (R^2>0.99 in all cases) of 1/T1 or 1/T2 as a function of Mn concentration gave r1 or r2 values respectively.
The values in Table 1 are relaxivities in water. The r1 value represents the ability of the chelate to generate T1 (or positive) contrast in a MR scanner while the r2 value represents the ability of the chelate to generate T2 (or negative) contrast in a MR scanner.

As to `CC(=O)NC/C=C1\SC(=O)NC1=O`, the “pKa (approx.)” value in data set [1] is reported as about 6.8.

For `CC(=O)NCCc1ccc(S(=O)(=O)C[N+](=O)[O-])cc1`, in data set [1], the “pKa (approx.)” value is reported as about 7.1.

With `CC(=O)NCCc1cc([N+](=O)[O-])ccc1S`, in data set [1], the “pKa (approx.)” value was about 5.5.

Turning to `CC(=O)NCCc1ccc(C(=O)C[N+](=O)[O-])cc1`, in data set [1], the “pKa (approx.)” value is given as about 7.7.

With `CC(=O)NCCc1cc([N+](=O)[O-])cc([N+](=O)[O-])c1O`, in data set [1], the “pKa (approx.)” value is recorded as about 5.1.

Regarding `CC(=O)NCCc1ccc(C(C#N)C#N)cc1`, in data set [1], the “pKa (approx.)” value was about 4.2.

Take `CC(=O)NCCS(=O)(=O)O`: the “pKa (approx.)” value in data set [1] was about 1.6.

`CN1CCN2Cc3cccc(n3)CN(CC1)C(CCC(=O)NCCS(=O)(=O)O)C(=O)[O][Mn][O]C(=O)C2CCC(=O)NCCS(=O)(=O)O` (stereo not shown) [Mn Chelate 1] had a r1 relaxivity in data set [2] of 3.4 mM⁻¹ s⁻¹.

In turn, `CN1CCN2Cc3cccc(n3)CN(CC1)C(CCCCNC(=O)[C@H](O)[C@@H](O)C(=O)O)C(=O)[O][Mn][O]C(=O)C2CCCCNC(=O)[C@H](O)[C@@H](O)C(=O)O` (stereo partly shown) [Mn Chelate 2] returned a r1 relaxivity in data set [2] of 4.6 mM⁻¹ s⁻¹.

Consider `CN1CCN2CC(=O)[O][Mn][O]C(=O)CN(CC1)Cc1cccc(n1)C2` [Mn Platform, reference compound], for which, in data set [2], the r1 relaxivity was 1.7 mM⁻¹ s⁻¹.
